The source of these data is publication PMC9030833, “Molecular Modeling and Experimental Evaluation of Non-Chiral Components of Bergamot Essential Oil with Inhibitory Activity against Human Monoamine Oxidases” (Molecules, 2022).

One test has as its target T1, hMAO-A (Homo sapiens, UniProt P21397).
T1 construct: purchased Sigma-Aldrich; host or cells: insect cells (BTI-TN-5B1-4), recombinant baculovirus
T1 sequence (P21397 1-527): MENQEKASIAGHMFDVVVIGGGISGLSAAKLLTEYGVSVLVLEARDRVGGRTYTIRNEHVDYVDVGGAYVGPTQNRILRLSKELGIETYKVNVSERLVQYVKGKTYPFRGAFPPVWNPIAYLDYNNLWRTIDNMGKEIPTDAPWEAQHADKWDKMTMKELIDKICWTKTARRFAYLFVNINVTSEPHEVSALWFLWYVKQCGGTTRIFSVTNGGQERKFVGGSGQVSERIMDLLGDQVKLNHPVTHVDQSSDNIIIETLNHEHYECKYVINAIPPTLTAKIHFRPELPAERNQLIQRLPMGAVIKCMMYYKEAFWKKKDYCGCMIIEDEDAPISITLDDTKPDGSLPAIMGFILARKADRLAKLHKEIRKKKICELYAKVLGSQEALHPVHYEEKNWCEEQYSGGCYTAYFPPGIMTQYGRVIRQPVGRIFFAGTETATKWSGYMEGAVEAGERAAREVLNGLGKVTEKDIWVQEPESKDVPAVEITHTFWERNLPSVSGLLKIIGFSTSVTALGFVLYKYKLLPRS
As to the kind of experiment: In vitro hMAO-A inhibition, spectrophotometric Kynuramine deamination assay. The format is biochemical. How it is done: (§1) To this end, a spectrophotometric method based on the oxidative deamination of Kynuramine by recombinant hMAO-A or hMAO-B was used.
(§2) The inhibitory activity of Bergamottin on hMAO-A and hMAO-B was studied using an experimental protocol described elsewhere. The hMAO inhibitory activity was assessed in microsomal MAO isoforms prepared from insect cells (BTI-TN-5B1-4) infected with recombinant baculovirus containing cDNA inserts for hMAO-A or hMAO-B, and by measuring the enzymatic conversion rates of Kynuramine into 4-hydroxyquinoline. […] All assays were performed in sodium phosphate buffer solution 50 mM pH 7.4.
(§3) Then, the reaction was started with the addition of hMAO-A or hMAO-B. Initial velocities were determined spectrophotometrically in a microplate reader (BioTek Synergy HT from BioTek Instruments, Winooski, VT, USA) at 37 °C by measuring the formation of 4-hydroxyquinoline at 316 nm, over a period of at least 30 min (interval of 1 min). Data were analyzed using GraphPad PRISM version 6 for Windows (GraphPad Software®, San Diego, CA, USA). […] IC50 values were obtained from dose–response curves and were expressed as mean ± standard deviation. IC50 values were determined from at least three independent experiments, each performed in triplicate. […]

The next test concerns the target T2, hMAO-B (Homo sapiens, UniProt P27338).
T2 construct: purchased Sigma-Aldrich; host or cells: insect cells (BTI-TN-5B1-4), recombinant baculovirus
T2 sequence (P27338 1-520): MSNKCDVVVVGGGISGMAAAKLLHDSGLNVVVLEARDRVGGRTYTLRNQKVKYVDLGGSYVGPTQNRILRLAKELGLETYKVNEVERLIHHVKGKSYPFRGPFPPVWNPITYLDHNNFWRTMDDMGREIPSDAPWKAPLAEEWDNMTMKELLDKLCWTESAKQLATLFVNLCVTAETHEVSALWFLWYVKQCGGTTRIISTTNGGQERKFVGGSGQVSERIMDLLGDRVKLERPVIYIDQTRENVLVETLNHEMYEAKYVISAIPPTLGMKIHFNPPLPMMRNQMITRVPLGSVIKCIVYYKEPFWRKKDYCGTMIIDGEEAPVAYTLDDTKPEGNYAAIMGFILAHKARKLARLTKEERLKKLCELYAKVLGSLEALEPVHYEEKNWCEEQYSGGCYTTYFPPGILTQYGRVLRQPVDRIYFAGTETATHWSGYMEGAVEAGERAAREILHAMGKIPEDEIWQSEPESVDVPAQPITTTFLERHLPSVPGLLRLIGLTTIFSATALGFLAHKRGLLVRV
As to the kind of experiment: In vitro hMAO-B inhibition, spectrophotometric Kynuramine deamination assay. The format is biochemical. On the procedure: as §1, §2, §3

The IC50 is the concentration at which inhibition is half-maximal.

Molecules are shown by their SMILES.

`CC(C)=CCC/C(C)=C/COc1c2ccoc2cc2oc(=O)ccc12` [Bergamottin]: the IC50 came out at 9.25 ± 0.91 µM on hMAO-A and 0.291 µM on hMAO-B (recombinant hMAO-B, Kynuramine substrate). Also, the “SI (selectivity index)” value at hMAO-B (selectivity for hMAO-B over hMAO-A from the IC50 values) was determined as 31.8.
